# Assay: surface tension of aqueous solutions (du Nouy tensiometer)
# Assay type: physicochemical
# Settings: 100 ppm (0.01% solids) in deionized water, diluted from 10% solids in water/isopropyl alcohol
# Experimental: (§1) In the following Examples and Comparative Examples, fluoroaliphatic radical-containing compounds were prepared. The surface tension of water and isopropyl alcohol solutions containing these compounds was measured using a du Nouy tensiometer. The foaming properties of these solutions were also evaluated by generating foam and measuring the foam volume and half life.
# The fluorochemical solutions obtained in Examples 1 to 6 and Comparative Examples C1 to C12 were diluted to 10% solids by dilution with a solution of 70% by volume water and 30% by volume isopropyl alcohol. Further dilutions to 0.01% solids (100 ppm), and 0.05% solids (500 ppm), were done with deionized water.
row,Structure (SMILES),Surface tension (dynes/cm) at 100 ppm
1,CCN(CC(=O)O)S(=O)(=O)C(F)(F)C(F)(F)C(F)(F)C(F)(F)C(F)(F)C(F)(F)C(F)(F)C(F)(F)F [Comparative Example C4],19.7 dynes/cm
2,CCN(CCC(=O)O)S(=O)(=O)C(F)(F)C(F)(F)C(F)(F)C(F)(F)C(F)(F)C(F)(F)C(F)(F)C(F)(F)F [Comparative Example C5],24.3 dynes/cm
3,CCN(CCC(=O)O)S(=O)(=O)C(F)(F)C(F)(F)C(F)(F)C(F)(F)C(F)(F)C(F)(F)C(F)(F)C(F)(F)F [Comparative Example C6],19.9 dynes/cm
4,CCN(CCC(=O)O)S(=O)(=O)C(F)(F)C(F)(F)C(F)(F)C(F)(F)C(F)(F)C(F)(F)C(F)(F)C(F)(F)F [Comparative Example C7],19.1 dynes/cm
5,CCN(CCC(=O)NCCC[N+](C)(C)CC)S(=O)(=O)C(F)(F)C(F)(F)C(F)(F)C(F)(F)C(F)(F)C(F)(F)C(F)(F)C(F)(F)F [Comparative Example C8],20.5 dynes/cm
6,CCN(CCC(=O)NCCC[N+](C)(C)CCCS(=O)(=O)[O-])S(=O)(=O)C(F)(F)C(F)(F)C(F)(F)C(F)(F)C(F)(F)C(F)(F)C(F)(F)C(F)(F)F [Comparative Example C9],20.0 dynes/cm
7,CC[N+](C)(CC)CCNS(=O)(=O)C(F)(F)C(F)(F)C(F)(F)C(F)(F)C(F)(F)C(F)(F)C(F)(F)C(F)(F)F [Comparative Example C11],18.1 dynes/cm
8,C[N+](C)(CCCNS(=O)(=O)C(F)(F)C(F)(F)C(F)(F)C(F)(F)C(F)(F)C(F)(F)F)CC(=O)[O-] [Comparative Example C12],21.0 dynes/cm
9,CC(C)(CS(=O)(=O)O)NC(=O)CCNCCNS(=O)(=O)C(F)(F)C(F)(F)C(F)(F)C(F)(F)C(F)(F)C(F)(F)C(F)(F)C(F)(F)F [Example 1],18.3 dynes/cm
10,O=C(O)CCNCCNS(=O)(=O)C(F)(F)C(F)(F)C(F)(F)C(F)(F)C(F)(F)C(F)(F)C(F)(F)C(F)(F)F [Example 2],16.8 dynes/cm
11,CC(C)(CS(=O)(=O)O)NC(=O)CCN1CCN(S(=O)(=O)C(F)(F)C(F)(F)C(F)(F)C(F)(F)C(F)(F)C(F)(F)C(F)(F)C(F)(F)F)CC1 [Example 3],20.3 dynes/cm

# Same assay, conditions: 500 ppm (0.05% solids) in deionized water, diluted from 10% solids in water/isopropyl alcohol
row,Structure (SMILES),Surface tension (dynes/cm) at 500 ppm
1,CCN(CC(=O)O)S(=O)(=O)C(F)(F)C(F)(F)C(F)(F)C(F)(F)C(F)(F)C(F)(F)C(F)(F)C(F)(F)F [Comparative Example C4],16.4 dynes/cm
2,CCN(CCC(=O)O)S(=O)(=O)C(F)(F)C(F)(F)C(F)(F)C(F)(F)C(F)(F)C(F)(F)C(F)(F)C(F)(F)F [Comparative Example C5],20.7 dynes/cm
3,CCN(CCC(=O)O)S(=O)(=O)C(F)(F)C(F)(F)C(F)(F)C(F)(F)C(F)(F)C(F)(F)C(F)(F)C(F)(F)F [Comparative Example C6],17.5 dynes/cm
4,CCN(CCC(=O)O)S(=O)(=O)C(F)(F)C(F)(F)C(F)(F)C(F)(F)C(F)(F)C(F)(F)C(F)(F)C(F)(F)F [Comparative Example C7],17.2 dynes/cm
5,CCN(CCC(=O)NCCC[N+](C)(C)CC)S(=O)(=O)C(F)(F)C(F)(F)C(F)(F)C(F)(F)C(F)(F)C(F)(F)C(F)(F)C(F)(F)F [Comparative Example C8],18.5 dynes/cm
6,CCN(CCC(=O)NCCC[N+](C)(C)CCCS(=O)(=O)[O-])S(=O)(=O)C(F)(F)C(F)(F)C(F)(F)C(F)(F)C(F)(F)C(F)(F)C(F)(F)C(F)(F)F [Comparative Example C9],18.3 dynes/cm
7,CC[N+](C)(CC)CCNS(=O)(=O)C(F)(F)C(F)(F)C(F)(F)C(F)(F)C(F)(F)C(F)(F)C(F)(F)C(F)(F)F [Comparative Example C11],17.5 dynes/cm
8,C[N+](C)(CCCNS(=O)(=O)C(F)(F)C(F)(F)C(F)(F)C(F)(F)C(F)(F)C(F)(F)F)CC(=O)[O-] [Comparative Example C12],19.4 dynes/cm
9,CC(C)(CS(=O)(=O)O)NC(=O)CCNCCNS(=O)(=O)C(F)(F)C(F)(F)C(F)(F)C(F)(F)C(F)(F)C(F)(F)C(F)(F)C(F)(F)F [Example 1],17.1 dynes/cm
10,O=C(O)CCNCCNS(=O)(=O)C(F)(F)C(F)(F)C(F)(F)C(F)(F)C(F)(F)C(F)(F)C(F)(F)C(F)(F)F [Example 2],16.5 dynes/cm
11,CC(C)(CS(=O)(=O)O)NC(=O)CCN1CCN(S(=O)(=O)C(F)(F)C(F)(F)C(F)(F)C(F)(F)C(F)(F)C(F)(F)C(F)(F)C(F)(F)F)CC1 [Example 3],18.5 dynes/cm
12,CC(C)(CS(=O)(=O)O)NC(=O)CCNCCC[Si](C)(C)O[Si](C)(C)CCCNS(=O)(=O)C(F)(F)C(F)(F)C(F)(F)C(F)(F)F [Example 4],20.1 dynes/cm
13,CCN(CCSC(CC(=O)O)C(=O)O)S(=O)(=O)C(F)(F)C(F)(F)C(F)(F)C(F)(F)C(F)(F)C(F)(F)C(F)(F)C(F)(F)F (stereo not drawn) [Example 6],19.3 dynes/cm

# Assay: foam volume of surfactant solutions (Hobart mixer, graduated cylinder)
# Assay type: physicochemical
# Settings: 200 mL of 500 ppm solution, Hobart mixer 3 minutes at medium speed
# Experimental: as §1
# (§2) Foam was generated from 200 mL of the 500 ppm solutions used for measuring surface tension. The surfactant solutions were mixed with a Hobart mixer for 3 minutes at medium speed. Foam volume (cubic centimeters of foam) was measured in a graduated cylinder. Foam half-life was measured as the seconds needed to drain 100 mL of solution from the foam.
row,Structure (SMILES),Foam Volume
1,CCN(CC(=O)O)S(=O)(=O)C(F)(F)C(F)(F)C(F)(F)C(F)(F)C(F)(F)C(F)(F)C(F)(F)C(F)(F)F [Comparative Example C4],2600 cm^3
2,CCN(CCC(=O)O)S(=O)(=O)C(F)(F)C(F)(F)C(F)(F)C(F)(F)C(F)(F)C(F)(F)C(F)(F)C(F)(F)F [Comparative Example C5],1500 cm^3
3,CCN(CCC(=O)O)S(=O)(=O)C(F)(F)C(F)(F)C(F)(F)C(F)(F)C(F)(F)C(F)(F)C(F)(F)C(F)(F)F [Comparative Example C6],1900 cm^3
4,CCN(CCC(=O)O)S(=O)(=O)C(F)(F)C(F)(F)C(F)(F)C(F)(F)C(F)(F)C(F)(F)C(F)(F)C(F)(F)F [Comparative Example C7],2200 cm^3
5,CCN(CCC(=O)NCCC[N+](C)(C)CC)S(=O)(=O)C(F)(F)C(F)(F)C(F)(F)C(F)(F)C(F)(F)C(F)(F)C(F)(F)C(F)(F)F [Comparative Example C8],600 cm^3
6,CCN(CCC(=O)NCCC[N+](C)(C)CCCS(=O)(=O)[O-])S(=O)(=O)C(F)(F)C(F)(F)C(F)(F)C(F)(F)C(F)(F)C(F)(F)C(F)(F)C(F)(F)F [Comparative Example C9],900 cm^3
7,CC[N+](C)(CC)CCNS(=O)(=O)C(F)(F)C(F)(F)C(F)(F)C(F)(F)C(F)(F)C(F)(F)C(F)(F)C(F)(F)F [Comparative Example C11],2600 cm^3
8,C[N+](C)(CCCNS(=O)(=O)C(F)(F)C(F)(F)C(F)(F)C(F)(F)C(F)(F)C(F)(F)F)CC(=O)[O-] [Comparative Example C12],2400 cm^3
9,CC(C)(CS(=O)(=O)O)NC(=O)CCNCCNS(=O)(=O)C(F)(F)C(F)(F)C(F)(F)C(F)(F)C(F)(F)C(F)(F)C(F)(F)C(F)(F)F [Example 1],300 cm^3
10,O=C(O)CCNCCNS(=O)(=O)C(F)(F)C(F)(F)C(F)(F)C(F)(F)C(F)(F)C(F)(F)C(F)(F)C(F)(F)F [Example 2],300 cm^3

# Same assay, conditions: 500 ppm; versus anionic Comparative Examples C4 to C7
row,Structure (SMILES),foam volume relative to anionic Comparative Examples C4 to C7 (in words)
1,CC(C)(CS(=O)(=O)O)NC(=O)CCNCCNS(=O)(=O)C(F)(F)C(F)(F)C(F)(F)C(F)(F)C(F)(F)C(F)(F)C(F)(F)C(F)(F)F [Example 1],much lower foam volume
2,O=C(O)CCNCCNS(=O)(=O)C(F)(F)C(F)(F)C(F)(F)C(F)(F)C(F)(F)C(F)(F)C(F)(F)C(F)(F)F [Example 2],much lower foam volume

# Assay: foam half-life (seconds needed to drain 100 mL of solution from the foam)
# Assay type: physicochemical
# Settings: 200 mL of 500 ppm solution; seconds to drain 100 mL of solution from the foam
# Experimental: as §1, §2
row,Structure (SMILES),Foam Half-Life
1,CCN(CC(=O)O)S(=O)(=O)C(F)(F)C(F)(F)C(F)(F)C(F)(F)C(F)(F)C(F)(F)C(F)(F)C(F)(F)F [Comparative Example C4],375 s
2,CCN(CCC(=O)O)S(=O)(=O)C(F)(F)C(F)(F)C(F)(F)C(F)(F)C(F)(F)C(F)(F)C(F)(F)C(F)(F)F [Comparative Example C5],83 s
3,CCN(CCC(=O)O)S(=O)(=O)C(F)(F)C(F)(F)C(F)(F)C(F)(F)C(F)(F)C(F)(F)C(F)(F)C(F)(F)F [Comparative Example C6],245 s
4,CCN(CCC(=O)O)S(=O)(=O)C(F)(F)C(F)(F)C(F)(F)C(F)(F)C(F)(F)C(F)(F)C(F)(F)C(F)(F)F [Comparative Example C7],300 s
5,CCN(CCC(=O)NCCC[N+](C)(C)CC)S(=O)(=O)C(F)(F)C(F)(F)C(F)(F)C(F)(F)C(F)(F)C(F)(F)C(F)(F)C(F)(F)F [Comparative Example C8],less than 30 sec.
6,CCN(CCC(=O)NCCC[N+](C)(C)CCCS(=O)(=O)[O-])S(=O)(=O)C(F)(F)C(F)(F)C(F)(F)C(F)(F)C(F)(F)C(F)(F)C(F)(F)C(F)(F)F [Comparative Example C9],35 s
7,CC[N+](C)(CC)CCNS(=O)(=O)C(F)(F)C(F)(F)C(F)(F)C(F)(F)C(F)(F)C(F)(F)C(F)(F)C(F)(F)F [Comparative Example C11],320 s
8,C[N+](C)(CCCNS(=O)(=O)C(F)(F)C(F)(F)C(F)(F)C(F)(F)C(F)(F)C(F)(F)F)CC(=O)[O-] [Comparative Example C12],320 s
9,CC(C)(CS(=O)(=O)O)NC(=O)CCNCCNS(=O)(=O)C(F)(F)C(F)(F)C(F)(F)C(F)(F)C(F)(F)C(F)(F)C(F)(F)C(F)(F)F [Example 1],less than 30 sec.
10,O=C(O)CCNCCNS(=O)(=O)C(F)(F)C(F)(F)C(F)(F)C(F)(F)C(F)(F)C(F)(F)C(F)(F)C(F)(F)F [Example 2],less than 30 sec.

# Same assay, conditions: 500 ppm; versus anionic Comparative Examples C4 to C7
row,Structure (SMILES),foam half-life relative to anionic Comparative Examples C4 to C7 (in words)
1,CC(C)(CS(=O)(=O)O)NC(=O)CCNCCNS(=O)(=O)C(F)(F)C(F)(F)C(F)(F)C(F)(F)C(F)(F)C(F)(F)C(F)(F)C(F)(F)F [Example 1],significantly shorter foam half-life
2,O=C(O)CCNCCNS(=O)(=O)C(F)(F)C(F)(F)C(F)(F)C(F)(F)C(F)(F)C(F)(F)C(F)(F)C(F)(F)F [Example 2],significantly shorter foam half-life

# Source: patent US6201122A, “Fluoroaliphatic radical-containing anionic sulfonamido compounds” (3M Innovative Properties Company, priority 1992, dated 2001)
